In patent publication US20230255938A1, “COMPOSITION FOR INHIBITING SEBUM SECRETION COMPRISING FABP4 INHIBITOR” (THE INDUSTRY & ACADEMIC COOPERATION IN CHUNGNAM NATIONAL …, priority 2022, published 2023):

What was measured:
Type in all cases: cell-based
[1] = test system: SREBP-1; experiment: Western blotting of SREBP-1 in IGF-1-treated immortalized human sebocytes; settings: 1, 2 or 5 μM BMS309403 for 1 hour, then 50 ng/mL IGF-1; Western blot, FIG. 1 upper left
Procedure: (§1) Immortalized human sebocytes were used for the experiment. The cell lines were established as previously described. All procedures were approved by the Institutional Committee of Chungnam National University Hospital. The immortalized human sebocytes were cultured in Sebomed medium (Biochrom, Berlin, Germany) supplemented with 10% fetal bovine serum (Gibco BRL, Rockville, Md., USA) and 5 ng/mL of recombinant human EGF (Invitrogen, Grand Island, N.Y., USA).
(§2) After harvesting, the cells were lysed in protein extraction solution (Intron, Daejeon, Korea). Equal amounts of protein were then loaded and separated by […], and then the proteins were transferred onto nitrocellulose membranes (Pall Corp., Port Washington, N.Y., USA). After blocking with 5% skim milk, the membranes were incubated with various primary antibodies. The blot was reacted with a secondary antibody conjugated with peroxidase, and were visualized for specific proteins with ECL (BIOMAX, Seoul, Korea). The primary antibodies used in western blot analysis were as follows: Actin, SREBP-1(Santa Cruz, Calif.), PPAR-γ, phospho-IGFR (p-IGFR), phospho-Akt (Cell Signaling Technology, Danvers, Mass.)
(§3) The effect of BMS309403 on IGF-1-induced lipid synthesis was measured using an immortalized human sebaceous cell line established in a previous study. Immortalized human sebocytes were treated with 1, 2 or 5 μM of BMS309403. […]

[2] = test system: PPAR-γ; experiment: Western blotting of PPAR-γ in IGF-1-treated immortalized human sebocytes; settings: 1, 2 or 5 μM BMS309403 for 1 hour, then 50 ng/mL IGF-1; Western blot, FIG. 1 upper left
Procedure: as §1, §2, §3

[3] = test system: phospho-IGFR (p-IGFR); experiment: Western blotting of phospho-IGFR in IGF-1-treated immortalized human sebocytes; settings: 1, 2 or 5 μM BMS309403 for 1 hour, then 50 ng/mL IGF-1; Western blot, FIG. 1 lower left
Procedure: as §1, §2, §3

[4] = test system: phospho-Akt; experiment: Western blotting of phospho-Akt in IGF-1-treated immortalized human sebocytes; settings: 1, 2 or 5 μM BMS309403 for 1 hour, then 50 ng/mL IGF-1; Western blot, FIG. 1 lower left
Procedure: as §1, §2, §3

[5] = test system: immortalized human sebocytes; experiment: TLC of intracellular lipids (14C-acetate), IGF-1-induced lipid synthesis; settings: 1, 2 or 5 μM; TLC 48 hours after IGF-1 (50 ng/mL) treatment; FIG. 1 right
Procedure: as §1
For quantitative analysis of intracellular lipids, the present invention used the TLC method as used in previous studies. Briefly, immortalized human sebocytes were cultured in a medium containing 2 μCi of ^14C-acetate and sodium salt (PerkinElmer, Boston, Mass., USA) and allowed to react for 4 hours. Intracellular lipids were extracted with chloroform and methanol (2:1, v/v). The solvent was evaporated and the lipid was resuspended in chloroform. TLC (TLC silica gel 60 F254, Merck KgaA) was used to separate intracellular lipids. After development with hexane and ethyl acetate (6:1, v/v), intracellular lipids were visualized by radioactivity measurement.
The effect of BMS309403 on IGF-1-induced lipid synthesis was measured using an immortalized human sebaceous cell line established in a previous study. Immortalized human sebocytes were treated with 1, 2 or 5 μM of BMS309403. After treatment with BMS309403 for 1 hour, sebocytes were treated with 50 ng/mL of IGF-1 to induce differentiation and lipid synthesis.
IGF-1 increased the Intracellular lipid synthesis such as cholesterol, triglycerides, wax esters and squalene in immortalized human sebocytes.

Structure (SMILES): CCc1c(-c2ccccc2)c(-c2ccccc2)nn1-c1ccccc1-c1cccc(OCC(=O)O)c1 [BMS309403]
- level of SREBP-1 (transcription factor related to sebocyte differentiation) [1]: decreased their levels in a dose-dependent manner
- level of PPAR-γ (transcription factor related to sebocyte differentiation) [2]: decreased their levels in a dose-dependent manner
- phosphorylation of IGFR [3]: markedly reduced phosphorylation of IGFR and Akt in a dose-dependent manner
- phosphorylation of Akt [4]: markedly reduced phosphorylation of IGFR and Akt in a dose-dependent manner
- IGF-1-induced lipid synthesis (cholesterol, triglycerides, wax esters and squalene) [5]: reduced IGF-1-induced lipid synthesis
- intracellular lipid accumulation [5]: reduced intracellular lipid accumulation in a dose-dependent manner
- synthesis of squalene [5]: significantly reduced
- synthesis of wax esters [5]: significantly reduced
